# System: Plasmodium falciparum
# Test: GSK_TCMDC: Inhibition of Plasmodium falciparum 3D7 in whole erythrocytes, using parasite LDH activity as an index of growth.
# Assay type: functional, organism-based
# Details: Plasmodium falciparum, 3D7
row,SMILES,XC50
1,CCN(CC)CCN(Cc1ccc(-c2ccc(C(F)(F)F)cc2)cc1)C(=O)Cn1c(/C=C/c2ccco2)nc(=O)c2ccccc21,0.87 µM
2,CCN(CC)CCN(Cc1ccc(-c2ccc(C(F)(F)F)cc2)cc1)C(=O)Cn1c(CCc2cccc(F)c2F)nc(=O)c2cc(F)ccc21,0.826 µM
3,C=CC[C@H](NC(=O)c1ccc(NS(=O)(=O)c2ccc3nc(N)[nH]c(=O)c3c2)cc1)C(=O)OCCCC,0.154 µM
4,O=C(NCCNc1ccnc(NCc2ccc(F)cc2)n1)c1cc2ccccc2s1,0.695 µM
5,Nc1nc(-c2ccc3c(Nc4ccc(F)c(Cl)c4)ccnc3c2)cs1,0.868 µM
6,COc1ccc(OCCCCON2C(=N)N=C(N)NC2(C)C)cc1,0.0032 µM
7,Fc1cccc(COc2ccc(Nc3ncnc4sc(C#CC5CCCCN5)cc34)cc2Cl)c1 (stereo not drawn),0.54 µM
8,Fc1ccc(NC(S)=NN=Cc2ccccn2)cc1,0.775 µM
9,CC(C)C[C@H](NC(=O)c1cc2ccccc2s1)C(=O)N[C@H]1CCN(Cc2ccc(OC[C@@H]3CCCN3C)c3ccccc23)C1,1.16 µM
10,CNCc1ccc(CN(C)c2nc(N)c3cc(OC)c(OC)cc3n2)cc1,1.03 µM
11,Cn1c(-c2ccccc2)cc2c3c(N)nc(N)nc3ccc21,0.888 µM
12,Cc1cccc(C)c1CNc1ccnc2cc(C#N)ccc12,0.684 µM
13,CC1CCCN(Cc2cc(Cl)cc(Cl)c2O)C1 (stereo not drawn),0.933 µM
14,Nc1ncc(-c2ccc(Br)cc2)c(N)n1,0.92 µM
15,COCCCNC(=N)c1ccc(NC(=O)c2ccc(C(=O)Nc3ccc(C(=N)NCCCOC)cc3)cc2)cc1,0.045 µM
16,N#Cc1ccc(N(CCCO)Cc2ccccc2C(F)(F)F)cc1C(F)(F)F,0.978 µM
17,CCN(CC)C(=O)c1cnc(-c2ccccc2)nc1Oc1cccc(Cl)c1,1.16 µM
18,CC(C)OC(=O)c1ccc(NC(=O)N[C@@H](Cc2ccc(O)cc2)C(=O)NC2CCC(CCN3C4CCC3c3ccccc34)CC2)cc1 (stereo partly drawn),0.829 µM
19,Cc1nn(-c2ccccc2)c2c1C(c1ccc(C(C)C)cc1)N1C(=N2)N(Cc2ccccc2)c2ccccc21 (stereo not drawn),0.776 µM
20,Cc1cccc(-c2ccc(NC(=O)C3CCN(Cc4cccc(O)c4)CC3)cc2)c1,0.975 µM
21,Cc1[nH]c2ccccc2c1C1=CCN(CCCCCC23CCCc4cccc(c42)NC3=O)CC1 (stereo not drawn),0.253 µM
22,COc1cc2ccccc2c(OC)c1CCNCCCCNCCc1c(OC)cc2ccccc2c1OC,0.891 µM
23,CCCc1c(C(=O)NC2CCC(CN3CCC(c4c[nH]c5ccccc45)CC3)CC2)cnn1-c1ccc(Cl)cc1 (stereo not drawn),0.763 µM
24,O=C(Nc1cccc(CN2CCCN(Cc3cccc(Cl)c3)CC2)c1)c1ccc(-c2ccccc2)cc1,1.23 µM
25,O=c1nc(C=Cc2ccc(Br)cc2)oc2ccccc12,1.05 µM

row,SMILES,XC50
1,CCCCCc1cc(O)c2c3c(c(=O)oc2c1)CN(C)CC3,0.121 µM
2,Cc1ccccc1C1CCN(C2CCC(NC(=O)/C=C/c3c[nH]c4ccccc34)CC2)CC1 (stereo not drawn),0.81 µM
3,CC(=O)N(Cc1ccccc1-c1ccc(CNCCc2ccccc2)cc1)C1CCN(Cc2ccccc2)CC1,0.475 µM
4,CNc1ccc(CNCc2ccc(-c3ccc(-c4nc5cccc(C)c5[nH]4)s3)cc2)cc1,0.661 µM
5,Cc1[nH]c2ccccc2c1C1CCN(CCCCNC(=O)c2ccc(-c3ccc(C#N)cc3)cc2)CC1,0.704 µM
6,CN1CCN(c2ccc(Nc3ncc(C#N)c(Nc4ccccc4C(N)=O)n3)cc2)CC1,0.0394 µM
7,O=C(NCCN1CCOCC1)c1ccc(-c2ccc(CNCCCc3ccccc3)cc2)nc1,0.782 µM
8,CN1CCC(C(=O)N(Cc2ccc(-c3ccc(CNCCc4ccccc4)cn3)cc2)C2Cc3ccccc3C2)CC1,1.06 µM
9,CC(C)(C)CC(C)(C)c1ccc(O)c(CNC2CCCCC2)c1,0.0649 µM
10,CC1CCNc2ccc(Cc3cnc(N)nc3N)cc21 (stereo not drawn),1.04 µM
11,N=c1sc2ccccc2n1CC(O)c1ccc(Cl)c(Cl)c1 (stereo not drawn),0.8 µM
12,Nc1c2c(nc3ccc(Oc4ccc(Cl)cc4)cc13)CCCC2,0.972 µM
13,C=CCn1c(SCC(=O)Nc2cc(C)ccc2OC)nc2sc(C)cc2c1=O,0.417 µM
14,COc1ccc2nccc([C@@H](O)CN3CCC(NCc4cc5ccccc5[nH]4)CC3)c2c1,1.1 µM
15,O=C(Nc1cc(C(F)(F)F)cc(C(F)(F)F)c1)c1cc(C(F)(F)F)cc(C(F)(F)F)c1,0.872 µM
16,COc1ccc(F)cc1-c1ccc(C(=O)N2CCCN(c3ccc(C#N)cn3)CC2)cc1,0.112 µM
17,COc1ccc2nccc([C@@H](O)CN3CCC(NCCOc4cccc(F)c4F)CC3)c2c1,0.244 µM
18,CC1(C)N=C(N)N=C(N)N1c1ccc(Br)cc1,0.0092 µM
19,COc1ccccc1CCNc1nc(C)cc(N[C@@H](Cc2ccccc2)C(=O)NCCc2ccccc2)n1,1.11 µM
20,CC(Cc1ccc(OCCCCOc2ccccc2)cc1)NCCCn1ccnc1 (stereo not drawn),0.167 µM
21,COc1cc(NCC(O)CNc2cc(Cl)nc3ccccc23)nc2ccccc12 (stereo not drawn),0.416 µM
22,O=C(COc1ccc(Cl)c(Cl)c1)NCCCCCN1CCCN(C(=O)Nc2cc(Cl)cc(Cl)c2)CC1,1.14 µM
23,CC(C)C[C@@H](NC(=O)NC1CCC(CCN2C3CCC2CC(OC(=O)C(CO)c2ccccc2)C3)CC1)C(O)(c1ccccc1)c1ccccc1 (stereo partly drawn),1.07 µM
24,Cc1cc(=NN=Cc2ccccc2F)c2ccccc2[nH]1,0.919 µM
25,Cc1nc2ccc([N+](=O)[O-])cc2c(=O)n1OCc1ccccc1,0.208 µM

row,SMILES,XC50
1,C[C@@H](COc1ccc(-c2ccccc2)cc1)CON1C(N)=NC(N)=NC1(C)C,0.0032 µM
2,CCN(CC)/C(=N/C(=N)NCc1ccc(Cl)cc1)NCCCCCCN/C(=N\C(=N)NCc1ccc(Cl)cc1)N(CC)CC,0.231 µM
3,CCN(CC)c1cc(C)c2cc(NC(=O)c3cc(=O)c4ccccc4o3)ccc2n1,0.224 µM
4,COc1c(C2=CCN(CCCCNC(=O)c3ccc(-c4ccc(C#N)cc4)cc3)CC2)c(C)cc2c1C(C)(C)CCC2(C)C,0.947 µM
5,Nc1cccc(CNCc2ccc(-c3cccc(-c4nc5ccccc5[nH]4)c3)cc2)c1,0.71 µM
6,O=C(C(=O)c1ccc(Nc2ccnc3cc(-c4ccccn4)ccc23)cc1)c1ccccc1,0.966 µM
7,Cc1ccc(O)cc1Nc1ccnc2cc(-c3ccncc3)ccc12,0.723 µM
8,COCCNCc1cccc(-c2ccccc2CN(C(=O)c2ccc3c(c2)OCO3)c2ccc(OC)cc2)c1,1.11 µM
9,COc1ccc(CCn2c(=N)c(C(=O)NCc3ccccc3)cc3c(=O)n4cccc(C)c4nc32)cc1,0.339 µM
10,CN(C)CCNCc1ccc(-c2ccc(-c3nc4cc(F)ccc4[nH]3)cc2)cc1,0.474 µM
11,Cc1cccc2nc(-c3cccc(-c4cccc(NC(=O)C(C)CN5CCN(C)CC5)c4)c3)[nH]c12 (stereo not drawn),0.537 µM
12,CC1CN(Cc2ccc(-c3ccc(-c4nc5cc(F)ccc5[nH]4)cc3)cc2)CC(C)O1 (stereo not drawn),0.564 µM
13,NC(=O)c1cnc2ccc(-c3cncs3)cc2c1Nc1ccc(F)c(Cl)c1,0.182 µM
14,Cc1cccc(CN2CCC(CNC(=O)c3cc4c(-c5ccccc5F)nn(C)c4s3)CC2)c1,1.09 µM
15,COc1ccc(CC2(c3ccc(F)cc3)N=C(N)N(CCCc3ccc4c(c3)OCO4)C2=O)cc1 (stereo not drawn),0.739 µM
16,CCC[C@@H]([C@@H](CC1CCCCC1)C(=O)N[C@H](C(=O)Nc1nccs1)C(C)(C)SCCNC(=O)OCc1ccccn1)N(O)C=O,0.162 µM
17,FC(F)(F)c1ccc2c(NCCc3ccccc3)ccnc2c1,1.27 µM
18,CCn1cc(C=C2Oc3c(ccc(O)c3CN3CCCCC3C)C2=O)c2ccccc21 (stereo not drawn),1.02 µM
19,CS(=O)(=O)CCNCc1nc(-c2ccc3c(Nc4ccc(F)c(O)c4)ccnc3c2)cs1,0.82 µM
20,CN(C(=O)NCCc1ccccc1)C1CCN(CCCCCNC(=O)/C=C/c2ccc(Cl)c(Cl)c2)CC1,0.678 µM
21,CCNC(=O)Nc1cccc(-c2ccc(-c3nc4cccc(C)c4[nH]3)s2)c1,0.766 µM
22,O=C(Nc1ccc(Cl)cc1)Nc1ccc2c(c1)N1CCN=C1S2,0.592 µM
23,COc1ccc(NC(=O)NCC2CCCN(CCCCCNC(=O)/C=C/c3ccc(Cl)c(Cl)c3)C2)c(OC)c1 (stereo not drawn),0.859 µM
24,S=C(NCCc1ccccc1)Nc1ccc2ncsc2c1,1.4 µM
25,Cc1cccc2nc(-c3cccc(-c4cccc(C(=O)NCCN5CCCC5)c4)c3)[nH]c12,0.833 µM

row,SMILES,XC50
1,Cc1cc2nc(-c3ccc(/C=C/C(=O)NC4CCCCC4)cc3)[nH]c2cc1C,1.01 µM
2,COc1ccc2nccc([C@@H](O)CN3CCC(NC(=O)C(=O)c4c[nH]c5c(C)cccc45)CC3)c2c1,0.307 µM
3,CCN(CC)c1ccccc1CNC(=O)c1cc(Cl)c(N)cc1OC,0.213 µM
4,CCn1cnc2c(N3CCCS3(=O)=O)cc(C(=O)N[C@@H](Cc3ccccc3)[C@H](O)CNC(C)(C)c3cccc(C(F)(F)F)c3)cc21,0.227 µM
5,CC(C)N1CCN(CCCCNc2c3ccccc3nc3ccccc23)CC1,0.54 µM
6,O=C(Nc1ccc(Cl)cc1)Nc1cccc(-c2cccc(-c3nc4cc(F)ccc4[nH]3)c2)c1,0.22 µM
7,O=C(CSc1nc(-c2ccccc2Cl)ns1)Nc1cccc(F)c1,1.11 µM
8,O=C1Nc2ccc3ncccc3c2/C1=C/Nc1ccc(N2CCN(CCO)CC2)cc1,1.27 µM
9,COc1ccc(-c2ccc(NC(=O)c3ccc(C#N)cc3)cc2)cc1CN1CCNCC1,0.505 µM
10,COc1ccc(Nc2nc(NCc3cccc(NS(C)(=O)=O)c3)cc(-c3ccc(OC)cc3)n2)cc1,1.22 µM
11,O=C(Nc1ccc(Oc2ccccc2)cc1)N1CCC(CN2CCC(c3c[nH]c4ccccc34)CC2)CC1,0.606 µM
12,NC(=O)c1ccsc1NC(=O)CNC(c1ccccc1)c1ccccc1,0.938 µM
13,O=C(C1CCCCC1)N1CCOC(CCN2CCC(c3ccccc3)CC2)(c2ccc(Cl)c(Cl)c2)C1 (stereo not drawn),0.93 µM
14,O=C(Nc1ccc(SC(F)(F)F)cc1)Nc1ccc(Cl)c(Cl)c1,0.909 µM
15,CC1(CCc2ccccc2)N=C(Nc2ccc(Cl)cc2)N=C(N)C1c1ccc(Cl)c(Cl)c1 (stereo not drawn),0.221 µM
16,COc1ccc(NC(=O)Nc2nc3ccccc3s2)cc1N1CCN(C)CC1,0.703 µM
17,COc1ccc2nc(-c3ccc(C(=O)NCCCN4CCN(c5cc(Cl)ccc5OC)CC4)cc3OC)[nH]c2c1,0.872 µM
18,CN1CCCC1CCNCc1cccc(-c2cnc(N3CCCC(C)(C)C3)nc2)c1 (stereo not drawn),0.927 µM
19,COc1cc2c(cc1N1CC(C)NC(C)C1)N(C(=O)c1ccc(-c3ccc(-c4ncc[nH]4)cc3C)cc1)CC2 (stereo not drawn),0.717 µM
20,N#Cc1cccc(CN2CCCN(c3ccc(NC(=O)c4cccs4)cc3)CC2)c1,0.809 µM
21,O=C1Nc2cccc3c2C1(CCCCCN1CCC(c2c[nH]c4ccncc24)CC1)CCC3 (stereo not drawn),0.99 µM
22,CCNc1cc(C(=O)N[C@@H](Cc2ccccc2)[C@H](O)CNC2CC3CCC2C3)cc(N2CCCCS2(=O)=O)c1 (stereo partly drawn),0.237 µM
23,COc1cc(SC)ccc1C(=O)N1CC(C)CC(C)C1 (stereo not drawn),0.354 µM

# — ChEMBL document CHEMBL1157539, “Thousands of chemical starting points for antimalarial lead identification” (Nature, 2010)
